This is an account of results in US7183279B2, “Histogranin-like peptides and non-peptides, processes for their preparation and uses thereof” (University of Ottawa, priority 2006, dated 2007).

“Also recorded” adds a separate entry of the source. Read-outs that look alike come from different tables or passages of the source. Non-standard residues stand in square brackets, D forms with d. Residues, ends and D or L forms follow the SMILES beside them. Phe(4-Cl) = N[C@@H](Cc1ccc(Cl)cc1)C(=O)O

Series [1] deals with Swiss Webster mice. Description: Mouse writhing test (acetic acid-induced). It counts as in vivo. The conditions noted are these: for AD50 (nmol/mouse): acetic acid i.p. 5 min after injection; for analgesia: i.v. administration, 1 μmol/kg; for analgesic activity after peripheral administration: oral and i.p. administrations. On the technique in general: Writhing tests count abdominal constrictions after an irritant is injected.

The test system of series [2] is Swiss Webster mice. Nature of the series: Mouse tail flick assay (radiant heat). It counts as in vivo. The conditions noted are these: i.c.v.; for AD50 (nmol/mouse): latency 5 min after injection. The protocol: Mouse tail flick assay. […] Briefly, the latency to withdraw the tail from a focused light stimulus was determined using a photocell. […] Baseline latencies were determined before experimental treatment as the mean of two trials and a maximal latency of 12 s was used to minimize tissue damage. Post-treatment latencies were determined 5 min after i.c.v. injection. The antinociceptive effect was expressed as the percentage of the maximum possible effect, as calculated by the formula: % MPE=[(post-injection latency-baseline latency)/(cutoff latency-baseline latency)]×100. […] Group % MPE means were compared using one-way ANOVAs and P≦0.05 was considered significant.

Series [3] has as its system Swiss Webster mice. Nature of the series: Mouse rotarod assay. The conditions noted are these: 10 nmol i.c.v. The source says:
Mouse rotarod assay. The rotarod treadmill (model 7600, UGO Basile, Italy) for mice was used to assess the motor side-effects of antinociceptive agents. […] The apparatus is constituted of a rod with a diameter of 2.5 cm suspended horizontally 50 cm above a plane working area. The rod is turning at a speed of 8 revolutions per min. Circular perpex separators are placed at regular intervals along the rod so that five mice can be tested at the same time. Before administering any compound, all animals are placed on the turning rod for one min in two consecutive rounds. Mice that fall from the rod during these conditioning experiments are excluded from the assay. For the assay, the test compounds were administered i.c.v. and the animals were placed on the turning rod for two min. The % of mice in groups of 10 mice which fell during this latter two min-experiment was recorded as the % of mice showing motor effects. Rotarod assays were conducted at different times (up to 60 min) after the administration of peptides. Statistical calculation were made using Student t-test. Results: Mouse writhing pain assay. […] The lengths of action of the various compounds were evaluated by measuring the time (T1/2) it took after injection of a specific dose of a compound to produce half-maximal effect. […] Analgesic effects of peripheral administrations. […] Mouse tail-flick assay.

The subject of series [4] is Swiss Webster mice. The conditions noted are these: literature values; cited from earlier work.
In series [5] the test system is Swiss Webster mice. Description: Induction of tolerance to morphine, tail-flick latency. The format is in vivo, mouse. The conditions noted are these: for tail-flick latency on repeated dosing: 8 days. The protocol: Tail-flick latency to thermal pain was recorded 30 min after the i.p. administration(s) in the morning session of days 1, 3, 6 and 8 as indicated in the figure.
(In general: Hot-plate and tail-flick tests time the reaction to a heat stimulus.)

Series [6] concerns rat. The conditions noted are these: literature; cited from earlier work.
For series [7] the following is noted: sciatic nerve injury, literature; cited from earlier work.
The conditions of series [8]: i.t. administration of NMDA, literature; cited from earlier work.

Turning to `N=C(N)NCCC[C@H]1NC(=O)[C@H](Cc2ccc(O)cc2)NC(=O)[C@H](Cc2ccc(Cl)cc2)NC(=O)CNC1=O` [Compound I-1, Cyclo(-Gly-(p-chloro)Phe-Tyr-D-Arg-)] (cyclo(G[Phe(4-Cl)]Y[dR])), in series [1] (i.c.v.), the “Potency ratio relative to Histogranin (HN)” value stood at 135, the “fold more potent than morphine” value amounted to 3.9 fold and the “AD50 (nmol/mouse)” value stood at 0.17 nmol/mouse. In addition, in series [1], the analgesia was 84% and the “analgesic activity after peripheral administration” value (“analgesic activity” for short) is “dose-dependent analgesic activity; also recorded: Significant analgesic activity”. In addition, in series [2], the “Potency ratio relative to [Ser1]HN” value was 12.5, the “analgesia in tail-flick assay in words” value is “more potent than HN” and the “AD50 (nmol/mouse)” value was 9.1 nmol/mouse. The motor effect entry in series [3] was “did not cause any motor effect”.
Take `C[C@@H](O)[C@@H]1NC(=O)[C@@H](CCCNC(=N)N)NC(=O)[C@H](Cc2ccc(O)cc2)NC(=O)[C@H](Cc2ccc(Cl)cc2)NC1=O` [Compound I-5, Cyclo(-Thr-(p-chloro)Phe-Tyr-D-Arg-)] (cyclo([Phe(4-Cl)]Y[dR]T)): in series [1] (i.c.v.), the “Potency ratio relative to Histogranin (HN)” value was determined as 2.14 and the “AD50 (nmol/mouse)” value is given as 10.7 nmol/mouse. Moreover, in series [2], the “Potency ratio relative to [Ser1]HN” value is 2.96 and the “AD50 (nmol/mouse)” value is recorded as 38.5 nmol/mouse. Besides, the motor effect entry in series [3] was “did not cause any motor effect”.
In the case of `CC(C)CC(NC(=O)C(NC(=O)C(CCCNC(=N)N)NC(=O)CNC(=O)C(CCC(N)=O)NC(=O)CN)C(C)O)C(=O)NC(Cc1ccc(O)cc1)C(=O)NCC(=O)NC(Cc1ccccc1)C(=O)O` (stereo not shown) [HN-(7–15), reference compound] (H-GQGRTLYGF-OH; configuration not given here), in series [1] (i.c.v.), the “Potency ratio relative to Histogranin (HN)” value is 2.71 and the “AD50 (nmol/mouse)” value is listed as 8.5 nmol/mouse. The AD50 in series [4] was 8.5 nmol/mouse.
For `N=C(N)NCCC[C@H](Nc1ccccc1NC(=O)Cc1ccc(O)cc1)C(N)=O` [II-1, N-5-guanidinopentanamide-(2S)-yl-2-N-(p-hydroxyphenylacetyl) phenylenediamine], the “potentiation of morphine analgesia” value in series [1] (coadministration i.c.v. of subanalgesic dose (3 nmol) with morphine) is on record as “left shift in the dose-response curve of morphine; also recorded: potentiates the analgesic effects of morphine”. Besides, the “prolongation of morphine analgesia” value in series [1] (coadministration with morphine 0.5 nmol i.c.v.) is “slightly prolongated”. Moreover, in series [1] (i.c.v.), the “Potency ratio relative to Histogranin (HN)” value worked out at 3.54 and the “AD50 (nmol/mouse)” value is 6.5 nmol/mouse. Besides, in series [1], the analgesia is listed as 35% and the “analgesic activity” value is reported as “dose-dependent analgesic activity; also recorded: Significant analgesic activity”. In series [2], the “Potency ratio relative to [Ser1]HN” value stood at 8.0, the “analgesia in tail-flick assay in words” value is “more potent than HN” and the “AD50 (nmol/mouse)” value is reported as 14.2 nmol/mouse. In addition, the “effect on analgesic effect of morphine” value in series [5] (4 mg/kg i.p. 30 min prior to morphine 10 mg/kg) is “potentiated the analgesic effect of morphine”. Also, the “effect on morphine tolerance” value in series [5] (4 mg/kg i.p. 30 min prior to morphine 10 mg/kg, days 6 and 8) is “inhibits morphine tolerance”. For the same compound, in series [5] (4 mg/kg i.p. twice a day, alone), the “tail-flick latency on repeated dosing” value is “small increase in the tail-flick latency that was significant only on days 1 and 8”. Besides, the motor effect entry in series [3] is on record as “did not cause any motor effect”.
As to `N=C(N)NCCC[C@H](Nc1ccc(C(F)(F)F)cc1NC(=O)Cc1ccc(O)cc1)C(N)=O` [II-2, N-5-guanidinopentanamide-(2S)-yl-2-N-(p-hydroxyphenylacetyl)-4-trifluorometyl-phenylenediamine], in series [1] (i.c.v.), the “Potency ratio relative to Histogranin (HN)” value is recorded as 1.40 and the “AD50 (nmol/mouse)” value stood at 16.1 nmol/mouse. Further, in series [2], the “Potency ratio relative to [Ser1]HN” value is listed as 1.16 and the “AD50 (nmol/mouse)” value stood at 98.6 nmol/mouse. Besides, the motor effect entry in series [3] is on record as “did not cause any motor effect”.
On the same counts, the results for `N=C(N)NCCC[C@@H](Nc1ccc(C(=O)O)cc1NC(=O)Cc1ccc(O)cc1)C(N)=O` [II-3, N-5-guanidinopentanamide-(2R)-yl-2-N-(p-hydroxyphenylacetyl)-4-carboxy-phenylenediamine] are 7.27, 3.16 nmol/mouse, 3.59, 31.7 nmol/mouse and “did not cause any motor effect”.
In the same order, the values of `N=C(N)NCCC[C@@H](Nc1ccc(C(=O)c2ccc(Cl)cc2)cc1NC(=O)Cc1ccc(O)cc1)C(N)=O` [II-4, N-5-guanidinopentanamide-(2R)-yl-2-N-(p-hydroxyphenylacetyl)-4-(p-chlorobenzoyl)-phenylenediamine] are 8.87, 2.61 nmol/mouse, 8.70, 13.1 nmol/mouse and “did not cause any motor effect”.
Take `N=C(N)NCCC[C@H](C(N)=O)n1c(-c2ccc(O)cc2)nc2cc(C(=O)O)ccc21` [III-1]: in series [1] (i.c.v.), the “Potency ratio relative to Histogranin (HN)” value stood at 5.56 and the “AD50 (nmol/mouse)” value was found to be 4.14 nmol/mouse. The “analgesic activity” value in series [1] is reported as “dose-dependent analgesic activity; also recorded: Significant analgesic activity”. Further, in series [2], the “Potency ratio relative to [Ser1]HN” value is reported as 11.9, the “analgesia in tail-flick assay in words” value is given as “more potent than HN” and the “AD50 (nmol/mouse)” value amounted to 9.6 nmol/mouse. Further, the motor effect entry in series [3] is listed as “did not cause any motor effect”.
Take `CN1CC[C@]23c4c5ccc(O)c4O[C@H]2[C@@H](O)C=C[C@H]3[C@H]1C5` [Morphine, reference compound]: the “AD50 (nmol/mouse)” value in series [1] (i.c.v.) is 0.72 nmol/mouse; in series [2], 1.57 nmol/mouse. Further, the “tail-flick latency on repeated dosing” value in series [5] (10 mg/kg i.p. twice a day) is “tolerance being developed at days 6 and 8”.
As for “Cyclo(-Gly-(p-amino)Phe-Tyr-D-Arg-) [Compound I-4]”, in series [1] (i.c.v.), the “Potency ratio relative to Histogranin (HN)” value amounted to 9.14 and the “AD50 (nmol/mouse)” value is 2.52 nmol/mouse. In series [1], this compound showed an analgesia of 71%.
As for “Cyclo(-Gly-(p-chloro)Phe-Tyr-(p-amino)Phe-) [Compound I-2]”, in series [1] (i.c.v.), the “Potency ratio relative to Histogranin (HN)” value is on record as 3.39 and the “AD50 (nmol/mouse)” value is given as 6.79 nmol/mouse.
As for “Cyclo(-Gly-(p-chloro)Phe-Tyr-(p-guanidino)Phe-) [Compound I-3]”, in series [1] (i.c.v.), the “Potency ratio relative to Histogranin (HN)” value is reported as 21.3 and the “AD50 (nmol/mouse)” value was found to be 1.08 nmol/mouse.
For the compound “[Ser^1] HN: a chemically stable analog of HN”, in series [2], the “Potency ratio relative to [Ser1]HN” value stood at 1. Besides, the “AD50 (nmol/mouse)” value in series [2] stood at 114 nmol/mouse. Also, the tonic pain entry in series [6] is “blocked tonic pain”. The hyperalgesia and allodynia entry in series [7] was “attenuated hyperalgesia and allodynia”; in series [8], “attenuated hyperalgesia and allodynia”.
